{
  "source": "patent US7455998B2",
  "about": "“Methods for forming structurally defined organic molecules” (Dow Corning Corporation, priority 2004, dated 2008)",
  "key": {"trypsin [1]": {"molecular_target": "T1, trypsin (Bos taurus, UniProt P00760)", "T1 sequence (P00760 24-246)": "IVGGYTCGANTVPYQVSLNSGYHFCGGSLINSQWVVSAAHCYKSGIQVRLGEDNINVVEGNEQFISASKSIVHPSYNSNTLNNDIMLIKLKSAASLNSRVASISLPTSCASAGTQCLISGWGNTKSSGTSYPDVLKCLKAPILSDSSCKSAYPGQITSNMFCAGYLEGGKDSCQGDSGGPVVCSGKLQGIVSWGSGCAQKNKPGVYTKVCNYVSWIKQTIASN", "settings": "neutral medium (pH 7.0) and toluene"}, "trypsin [2]": {"molecular_target": "T1, trypsin", "test": "Trypsin-catalyzed polycondensation, seven days", "type": "biochemical, bovine", "design": "purchased Sigma-Aldrich #T4665; host or cells: bovine pancreas", "settings": "25° C."}, "[3]": {"test": "Estimated solubility in water"}, "trypsin [4]": {"molecular_target": "T1, trypsin", "test": "Trypsin-catalyzed hydrolysis and condensation of alkoxysilanes", "type": "biochemical, bovine", "design": "purchased Sigma-Aldrich #T4665; host or cells: bovine pancreas"}},
  "data": [
    {"smiles": "C[Si](C)(C)O[Si](C)(C)C", "note": "[hexamethyldisiloxane]", "values": [
      {"measurement": "trypsin-catalyzed hydrolysis of the siloxane bond (reverse reaction)", "setting": "trypsin [1]", "value": "not observed to catalyze the hydrolysis of a siloxane bond"}
    ]},
    {"smiles": "CCO[Si](C)(OCC)OCC", "note": "[methyltriethoxysilane]", "values": [
      {"measurement": "trypsin-catalyzed polycondensation (result in words)", "setting": "trypsin [2]", "value": "promoted the complete hydrolysis and, subsequent, polycondensation"}
    ]},
    {"smiles": "CCO[Si](C)(C)C", "note": "[trimethylethoxysilane]", "values": [
      {"measurement": "solubility", "setting": "[3]", "value": 1000, "unit": "µg/mL"},
      {"measurement": "trypsin-catalyzed hydrolysis and condensation (result in words)", "setting": "trypsin [4]; 4:1 monomer to enzyme weight ratio, 25° C., three hours", "value": "preferentially catalyze the hydrolysis and condensation"},
      {"measurement": "relative turnover number of hydrolysis", "setting": "trypsin [4]; 10° C.", "value": 0.53, "unit": "s⁻¹"},
      {"measurement": "condensed in the presence of trypsin", "setting": "trypsin [4]; pH 7.0, 25° C., three hours", "value": 84, "unit": "%"},
      {"measurement": "hydrolysed in the presence of trypsin", "setting": "trypsin [4]; pH 7.0, 25° C., three hours", "value": 100, "unit": "%"}
    ]}
  ]
}
